The values below come from patent US5968817A, “DNA encoding serotonin receptors” (priority 1993, dated 1999).

Structures are written as SMILES. Read-outs that look alike come from different tables or passages of the source. Bounds are passed on as bounds.

Test [1] concerns the target T1, MR77 serotonin receptor (5-HT1E-Like) (Rattus norvegicus, UniProt P30940).
T1 construct: expressed in transfected cells; host or cells: CosM6 (subclone of COS-7), transient, vector pCMV4
T1 sequence (P30940 1-366): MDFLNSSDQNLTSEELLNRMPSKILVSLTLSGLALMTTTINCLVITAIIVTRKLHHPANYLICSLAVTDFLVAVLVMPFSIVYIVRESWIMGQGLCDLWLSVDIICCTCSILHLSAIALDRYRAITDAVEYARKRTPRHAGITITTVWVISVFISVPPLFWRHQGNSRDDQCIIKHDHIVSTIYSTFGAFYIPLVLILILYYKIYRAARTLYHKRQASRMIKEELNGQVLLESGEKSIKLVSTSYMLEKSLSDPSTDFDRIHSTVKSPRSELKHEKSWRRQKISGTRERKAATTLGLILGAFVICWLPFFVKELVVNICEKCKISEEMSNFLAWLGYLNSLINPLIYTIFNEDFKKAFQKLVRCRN
As to the kind of experiment: [125I]-LSD competition binding to membranes of CosM6 cells expressing MR77.

For test [2], the target named is T2, REC20 serotonin receptor (5-HT6) (Rattus norvegicus, UniProt P32305).
T2 construct: encodes a putative protein of 435 amino acids; expressed in transfected cells; host or cells: CosM6 (subclone of COS-7), transient, vector pCMV4
T2 sequence (P32305 1-435): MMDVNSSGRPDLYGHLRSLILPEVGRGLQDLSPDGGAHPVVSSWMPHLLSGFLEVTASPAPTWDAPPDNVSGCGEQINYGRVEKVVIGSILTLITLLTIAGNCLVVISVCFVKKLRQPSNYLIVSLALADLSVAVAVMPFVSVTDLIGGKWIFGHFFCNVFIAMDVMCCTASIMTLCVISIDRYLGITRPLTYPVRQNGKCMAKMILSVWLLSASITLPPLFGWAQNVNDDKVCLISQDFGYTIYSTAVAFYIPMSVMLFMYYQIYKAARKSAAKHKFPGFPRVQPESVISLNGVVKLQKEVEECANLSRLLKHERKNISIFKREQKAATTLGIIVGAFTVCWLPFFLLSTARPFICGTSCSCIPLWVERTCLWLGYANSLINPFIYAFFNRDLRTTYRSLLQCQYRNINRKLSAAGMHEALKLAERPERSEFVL
As to the kind of experiment: [125I]-LSD competition binding to membranes of CosM6 cells expressing REC20.

The target of test [3] is T3, MR22 serotonin receptor (5-HT5β) (Rattus norvegicus, UniProt P35365).
T3 construct: contains an open reading frame (ORF) encoding 370 amino acids; expressed in transfected cells; host or cells: CosM6 (subclone of COS-7), transient, vector pCMV4
T3 sequence (P35365 whole entry S4C/P322A): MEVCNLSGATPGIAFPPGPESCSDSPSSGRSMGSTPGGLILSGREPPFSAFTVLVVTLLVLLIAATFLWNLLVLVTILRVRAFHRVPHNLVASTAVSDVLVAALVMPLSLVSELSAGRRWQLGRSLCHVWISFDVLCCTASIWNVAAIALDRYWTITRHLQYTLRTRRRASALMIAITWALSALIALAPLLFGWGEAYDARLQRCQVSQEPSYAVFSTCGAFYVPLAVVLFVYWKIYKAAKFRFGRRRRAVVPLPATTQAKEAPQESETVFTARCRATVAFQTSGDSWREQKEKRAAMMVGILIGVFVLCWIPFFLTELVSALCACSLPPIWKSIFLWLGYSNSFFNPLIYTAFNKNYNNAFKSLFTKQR
Put plainly: [125I]-LSD competition binding to membranes of CosM6 cells expressing MR22.

Test [4] has as its target T4, REC17 serotonin receptor (5-HT5α) (Rattus norvegicus, UniProt P35364).
T4 construct: contains an ORF encoding 357 amino acids; expressed in transfected cells; host or cells: CosM6 (subclone of COS-7), transient, vector pCMV4
Put plainly: [125I]-LSD competition binding to membranes of CosM6 cells expressing REC17.

Test [5] relates to suprachiasmatic nucleus (SCN) neuronal activity. Put plainly: Effects of serotonergic agents on circadian rhythm of neuronal activity in suprachiasmatic nucleus slices. Particulars: for effect of antagonist on the 8-OH-DPAT-dependent phase shift: antagonist 15 min before, during and 15 min after 1 hour 8-OH-DPAT. The protocol: This was followed by the normal perfusion medium. Horizontal bars: time of lights-off in donor colony; vertical bars: time of treatment; dotted line: mean time of peak in untreated slices.
The effects of serotinergic agents on the neuronal activity as measured against circadian time in the suprachiasmatic nucleus (SCN) were measured. […] This was followed by the normal perfusion medium.

[6] abbreviates: CosM6 membranes, 1 nM [125I]-LSD, 60 min 37° C., read-out: IC50 for competition with 125I-LSD, MR77.
[7] abbreviates: CosM6 membranes, 1 nM [125I]-LSD, 60 min 37° C., read-out: IC50 for competition with 125I-LSD, Rec20.

T4 sequence (P35364 whole entry): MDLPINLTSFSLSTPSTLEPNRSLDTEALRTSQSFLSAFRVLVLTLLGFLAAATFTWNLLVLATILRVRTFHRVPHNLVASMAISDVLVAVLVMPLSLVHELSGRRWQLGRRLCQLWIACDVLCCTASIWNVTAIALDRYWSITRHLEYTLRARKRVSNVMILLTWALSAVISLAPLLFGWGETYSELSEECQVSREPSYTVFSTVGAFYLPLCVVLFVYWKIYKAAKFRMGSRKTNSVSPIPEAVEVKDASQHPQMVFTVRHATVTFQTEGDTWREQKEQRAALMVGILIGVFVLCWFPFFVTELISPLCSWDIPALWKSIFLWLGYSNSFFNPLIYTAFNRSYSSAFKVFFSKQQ

With `CN1C[C@H](C(=O)N[C@]2(C)O[C@@]3(O)[C@@H]4CCCN4C(=O)[C@H](Cc4ccccc4)N3C2=O)C=C2c3cccc4[nH]cc(c34)C[C@H]21` [Ergotamine], the IC50 in test [1] is 55 nM; in test [2] it was 33 nM; in test [3], 22 nM. In addition, in test [3], the “sensitivity of MR22 to the ligand (in words)” value (“sensitivity of MR22” below) is on record as “sensitive”.
With `NCCc1c[nH]c2ccc(C(N)=O)cc12` [Ligand 5-CT, 5-carboxyamidotryptamine], the “sensitivity of radiolabeled LSD binding to MR77 to the ligand (in words)” value (“sensitivity … to MR77 to the ligand (in words)” for short) in test [1] was “insenstive”. The IC50 was > 1000 nM in test [1] (setting [6]), 0.8 nM in test [2] (setting [7]), 20.4 nM in test [4] and 285 nM in test [3]. Further, the “sensitivity of radiolabeled LSD binding to REC20 to the ligand (in words)” value (shortened to “sensitivity … to REC20 to the ligand (in words)”) in test [2] was “displace”. Further, the “sensitivity of REC17 to the ligand (in words)” value (“sensitivity of REC17” for short) in test [4] is reported as “sensitive”. Also, the “sensitivity of MR22” value in test [3] is listed as “sensitive”.
Take `NCCc1c[nH]c2ccc(O)cc12` [Ligand 5-HT, 5-hydroxytryptamine]: the IC50 in test [1] (setting [6]) is 70 nM; in test [4], 380 nM.
For the compound `CCCN(CCC)C1CCc2cccc(O)c2C1` (stereo not drawn) [Ligand 8-OH-DPAT], the “sensitivity … to MR77 to the ligand (in words)” value in test [1] is “insenstive”. Further, in test [2], the “sensitivity … to REC20 to the ligand (in words)” value was “displace”. For the same compound, the IC50 in test [2] (setting [7]) came out at 97 nM. Besides, in test [5] (slice bath treatment for 1 hour), the “phase advance in the circadian rhythm of spontaneous neuronal activity in the SCN” value was 2 to 3 h. In test [4], the IC50 was > 1000 nM and the “sensitivity of REC17” value was “insensitive”. Also, in test [3], the IC50 is > 1000 nM and the “sensitivity of MR22” value is given as “insensitive”.
Turning to `CN1C[C@@H](NS(=O)(=O)N(C)C)C[C@@H]2c3cccc4c3c(cn4C)C[C@H]21` [Mesulergine], the IC50 in test [1] (setting [6]) was > 1000 nM; in test [2] (setting [7]), 17 nM; in test [4], > 1000 nM; in test [3], > 1000 nM.
Regarding `CN1C[C@H](CNC(=O)OCc2ccccc2)C[C@@H]2c3cccc4c3c(cn4C)C[C@H]21` [Metergoline], the IC50 in test [1] (setting [6]) was 535 nM; in test [2] (setting [7]), 17 nM; in test [4], > 1000 nM; in test [3], > 1000 nM.
On to `CSc1ccc2c(c1)C(N1CCN(C)CC1)Cc1ccccc1S2` (stereo not drawn) [Methiothepin], for which the IC50 in test [1] (setting [6]) was > 1000 nM. In addition, in test [4], the IC50 worked out at 45 nM and the “sensitivity of REC17” value was “sensitive”. For the same compound, in test [3], the “sensitivity of MR22” value is “sensitive”.
`CC[C@@H](CO)NC(=O)[C@@H]1C=C2c3cccc4c3c(cn4C)C[C@H]2N(C)C1` [Methysergide]: the IC50 in test [1] was 14 nM; in test [2], 32 nM; in test [4] it was 310 nM; in test [3], > 1000 nM.
In the case of `CC(C)NCC(O)COc1cccc2[nH]ccc12` (stereo not drawn) [Pindolol], the IC50 in test [2] (setting [7]) was > 1000 nM. The “effect of antagonist on the 8-OH-DPAT-dependent phase shift” value in test [5] is given as “has no effect”.
As to `Cc1nc2sccn2c(=O)c1CCN1CCC(=C(c2ccc(F)cc2)c2ccc(F)cc2)CC1` [Ritanserin], the half-maximal inhibitory concentration (IC50) in test [2] (setting [7]) worked out at 60 nM. The “effect of antagonist on the 8-OH-DPAT-dependent phase shift” value in test [5] is listed as “blocks”.
Turning to `CNS(=O)(=O)Cc1ccc2[nH]cc(CCN(C)C)c2c1` [Sumatriptan], the “sensitivity … to MR77 to the ligand (in words)” value in test [1] is “sensitive”. For the same compound, the IC50 in test [2] (setting [7]), in test [4] and in test [3] was > 1000 nM in each case. In addition, the “sensitivity of REC17” value in test [4] is on record as “insensitive”. Also, the “sensitivity of MR22” value in test [3] is recorded as “insensitive”.
Turning to `COC(=O)[C@@H]1[C@H]2C[C@H]3c4[nH]c5ccccc5c4CCN3C[C@@H]2CC[C@@H]1O` [Yohimbine], the IC50 in test [1] (setting [6]) was 570 nM.
Turning to `CCN(CC)C(=O)[C@@H]1C=C2c3cccc4[nH]c([125I])c(c34)C[C@H]2N(C)C1` [[^125 I]-LSD], in test [1] (transfected CosM6 cells), the “binding of [125I]-LSD to MR77 broken cell preparations (in words)” value was “saturable binding”. The “binding of [125I]-LSD to REC20 broken cell preparations (in words)” value in test [2] (transfected CosM6 cells) is “saturable binding”. Besides, in test [4] (transfected CosM6 cells), the “binding of [125I]-LSD to REC17 broken cell preparations (in words)” value is given as “saturable binding”. The “binding of [125I]-LSD to MR22 broken cell preparations (in words)” value in test [3] (transfected CosM6 cells) is given as “saturable binding”.
Consider `O=C(c1ccc(F)cc1)C1CCN(CCn2c(=O)[nH]c3ccccc3c2=O)CC1` [ketanserin], for which the “sensitivity … to REC20 to the ligand (in words)” value in test [2] is recorded as “sensitive”.
